# Legend:
# Design in all cases: species or system athymic female NCR-Nu Mice
# [1] = tested on: MCF-7 tumors located intraperitoneally; experiment: In vivo localization (biodistribution) in athymic female nude mice bearing intraperitoneal MCF-7 tumors; conditions: for Percent Injected Dose/Gram, blood / Percent Injected Dose/Gram, fat / Percent Injected Dose/Gram, kidney / Percent Injected Dose/Gram, liver / Percent Injected Dose/Gram, muscle / Percent Injected Dose/Gram, spleen / Percent Injected Dose/Gram, tumor / Percent Injected Dose/Gram, uteri: tail vein, intraperitoneal MCF-7, mean, n = 5
# Experimental: (§1) In vivo localization of 11β-ethyl-17α-(Z)-[^125 I](iodovinyl)estra-3,17β-diol (5) and a control compound 16α-[^125 I]iodovinyl-3,17β-estradiol (commercially available from DuPont New England Nuclear, MA) was determined in athymic female NCR-Nu Mice (purchased from Simonsen Laboratories, Gilroy, Calif.) bearing subcutaneous MCF-7(ER+) breast tumor xenografts. Prior to injection of the compounds, the mice were each implanted with fragments of MCF-7 breast tumor (approximately 2 cubic millimeters) in the subcutis of the left flank. At approximately the same time, a 1.7 mg estradiol pellet (Innovative Research of America, Toledo, Ohio) was implanted in the scapular region. The tumors were allowed to grow until they reached between 50 and 200 mg by visual inspection (approximately four to five weeks) prior to injection of the test compounds. One day prior to injection of the test compounds, the estradiol pellet was removed.
# (§2) The mice were each injected via tail vein with between 3 (1.1×10^5 Bq) and 6 μCi ([…]) ^125 I in approximately 50 μL of phosphate buffered saline. The mice were sacrificed at various time intervals. After exsanguination, the selected organ/tissue were excised, weighed and radioactivity measured in a gamma counter. The counts per minute (cpm) of 125I in each tissue was determined and expressed as cpm per gram of tissue per injected dose multiplied by 100 (percent injected dose/gram).
# The procedure of Example 3 was followed except each mouse was inoculated intraperitoneally with MCF-7 breast carcinoma cell line (7.5×10^6 cell/50 μL) rather than implanted subcutaneously with MCF-7 breast tumor. One day prior to this procedure, a 1.7 mg estradiol pellet was implanted subcutaneously in the scapular region. The tumor cells were allowed to form solid tumor nodules for 4 to 6 weeks prior to injection of the test compounds.
# [2] = tested on: MDA-MB-231 (ER-) breast tumor xenografts; experiment: In vivo biolocalization with gamma detecting probe, tumor/background ratio, MDA-MB-231 (ER-) tumor; conditions: MDA-MB-231 tumor, foreleg background, n = 5
# Experimental: (§3) In vivo biolocalization of 11β-ethyl-17α-(Z)-[^125 I](iodovinyl)estra-3,17β-diol (5) and a control compound 16α-[^125 I](iodovinyl)-3,17β-estradiol was determined in athymic female NCR-Nu Mice bearing subcutaneous MCF-7(ER+) breast tumor xenografts and MDA-MB-231 (ER-) breast tumor xenografts. The mice were at least 5 weeks old prior to injection into the right-hand flank with […] of MCF-7 breast carcinoma cells ([…]). One day prior to this procedure, the mice were implanted subcutaneously with a 1.7 mg estradiol pellet in the scapular region. Four to six weeks post-injection of the MCF-7 cells the estradiol pellet was removed and the mice inoculated in the left hind flank with 75 μL NDA-MB-231 breast tumor cells ([…]). Seven to ten days prior to injection of the test compounds, an estradiol pellet was again implanted in the scapular region. One to two days prior to injection of the test compounds, the estradiol pellet was removed, and 5 mice arbitrarily assigned to each test group.
# (§4) The mice were each injected via tail vein with between 3 ([…]) and […] ([…]) 125 iodine in approximately […] of phosphate-buffered saline. At various time intervals after injection of the test compounds, each group of mice was anesthetized with methoxyflurane in order to measure the radioactivity over the ER+ and ER- tumors and the front leg for use as a background and the thoraxic area which served as a blood pool control using a gamma detecting probe (RIGS ^TM Model 1001 control unit, Neoprobe Corporation, Columbus, Ohio). Three 20 to 60 second counts were recorded at each area measured at each time point.
# (§5) ^c Tu/Bkg = Mean(1-5) of (mean tumor countsn - mean foreleg
# (§6) background countsn)/mean foreleg background
# [3] = tested on: MCF-7(ER+) breast tumor xenografts; experiment: In vivo localization (biodistribution) in athymic female nude mice bearing subcutaneous MCF-7 tumor xenografts; conditions: for Percent Injected Dose/Gram, blood / Percent Injected Dose/Gram, fat / Percent Injected Dose/Gram, kidney / Percent Injected Dose/Gram, liver / Percent Injected Dose/Gram, muscle / Percent Injected Dose/Gram, spleen / Percent Injected Dose/Gram, tumor / Percent Injected Dose/Gram, uteri: tail vein, subcutaneous MCF-7, mean, n = 5
# Experimental: as §1, §2
# [4] = tested on: MCF-7(ER+) breast tumor xenografts; experiment: In vivo biolocalization with gamma detecting probe, tumor/background ratio, MCF-7 (ER+) tumor; conditions: for Tumor/Background Ratio (Tu/Bkg): MCF-7 tumor, foreleg background, n = 5
# Experimental: as §3, §4, §5, §6
structure (smiles),measurement,setting,value
"C[C@]12CC[C@@H]3c4ccc(O)cc4CC[C@H]3[C@@H]1C[C@@H]([125I])[C@@H]2O [16α-Iodo-[^125 I]-3,17β-Estradiol]",radioactivity in the uteri and tumors,"[1]; 48 hours post-injection, uteri and tumors, intraperitoneal MCF-7",no radioactivity defected
same,"Percent Injected Dose/Gram, blood",[1]; 10-12 hours,0.50 Percent Injected Dose/Gram
same,"Percent Injected Dose/Gram, blood",[1]; 2 hours,0.84 Percent Injected Dose/Gram
same,"Percent Injected Dose/Gram, blood",[1]; 6 hours,0.74 Percent Injected Dose/Gram
same,"Percent Injected Dose/Gram, blood",[1]; 24 hours,0.06 Percent Injected Dose/Gram
same,"Percent Injected Dose/Gram, blood",[1]; 48 hours,0.03 Percent Injected Dose/Gram
same,"Percent Injected Dose/Gram, fat",[1]; 10-12 hours,0.01 Percent Injected Dose/Gram
same,"Percent Injected Dose/Gram, fat",[1]; 2 hours,0.92 Percent Injected Dose/Gram
same,"Percent Injected Dose/Gram, fat",[1]; 6 hours,0.14 Percent Injected Dose/Gram
same,"Percent Injected Dose/Gram, fat",[1]; 24 hours,0.00 Percent Injected Dose/Gram
same,"Percent Injected Dose/Gram, fat",[1]; 48 hours,0.00 Percent Injected Dose/Gram
same,"Percent Injected Dose/Gram, kidney",[1]; 10-12 hours,0.24 Percent Injected Dose/Gram
same,"Percent Injected Dose/Gram, kidney",[1]; 2 hours,0.83 Percent Injected Dose/Gram
same,"Percent Injected Dose/Gram, kidney",[1]; 6 hours,0.41 Percent Injected Dose/Gram
same,"Percent Injected Dose/Gram, kidney",[1]; 24 hours,0.03 Percent Injected Dose/Gram
same,"Percent Injected Dose/Gram, kidney",[1]; 48 hours,0.00 Percent Injected Dose/Gram
same,"Percent Injected Dose/Gram, liver",[1]; 10-12 hours,0.84 Percent Injected Dose/Gram
same,"Percent Injected Dose/Gram, liver",[1]; 2 hours,6.54 Percent Injected Dose/Gram
same,"Percent Injected Dose/Gram, liver",[1]; 6 hours,5.37 Percent Injected Dose/Gram
same,"Percent Injected Dose/Gram, liver",[1]; 24 hours,0.15 Percent Injected Dose/Gram
same,"Percent Injected Dose/Gram, liver",[1]; 48 hours,0.08 Percent Injected Dose/Gram
same,"Percent Injected Dose/Gram, muscle",[1]; 10-12 hours,0.00 Percent Injected Dose/Gram
same,"Percent Injected Dose/Gram, muscle",[1]; 2 hours,0.12 Percent Injected Dose/Gram
same,"Percent Injected Dose/Gram, muscle",[1]; 6 hours,0.07 Percent Injected Dose/Gram
same,"Percent Injected Dose/Gram, muscle",[1]; 24 hours,0.00 Percent Injected Dose/Gram
same,"Percent Injected Dose/Gram, muscle",[1]; 48 hours,0.00 Percent Injected Dose/Gram
same,"Percent Injected Dose/Gram, spleen",[1]; 10-12 hours,0.15 Percent Injected Dose/Gram
same,"Percent Injected Dose/Gram, spleen",[1]; 2 hours,0.34 Percent Injected Dose/Gram
same,"Percent Injected Dose/Gram, spleen",[1]; 6 hours,0.36 Percent Injected Dose/Gram
same,"Percent Injected Dose/Gram, spleen",[1]; 24 hours,0.01 Percent Injected Dose/Gram
same,"Percent Injected Dose/Gram, spleen",[1]; 48 hours,0.00 Percent Injected Dose/Gram
same,"Percent Injected Dose/Gram, tumor",[1]; 10-12 hours,0.40 Percent Injected Dose/Gram
same,"Percent Injected Dose/Gram, tumor",[1]; 2 hours,1.35 Percent Injected Dose/Gram
same,"Percent Injected Dose/Gram, tumor",[1]; 6 hours,0.75 Percent Injected Dose/Gram
same,"Percent Injected Dose/Gram, tumor",[1]; 24 hours,0.02 Percent Injected Dose/Gram
same,"Percent Injected Dose/Gram, tumor",[1]; 48 hours,0.00 Percent Injected Dose/Gram
same,"Percent Injected Dose/Gram, uteri",[1]; 10-12 hours,0.45 Percent Injected Dose/Gram
same,"Percent Injected Dose/Gram, uteri",[1]; 2 hours,2.89 Percent Injected Dose/Gram
same,"Percent Injected Dose/Gram, uteri",[1]; 6 hours,1.09 Percent Injected Dose/Gram
same,"Percent Injected Dose/Gram, uteri",[1]; 24 hours,0.02 Percent Injected Dose/Gram
same,"Percent Injected Dose/Gram, uteri",[1]; 48 hours,0.00 Percent Injected Dose/Gram
same,Tumor/Background Ratio (Tu/Bkg),[2]; 10-12 hours,2.51 ± 1.40
same,Tumor/Background Ratio (Tu/Bkg),[2]; 2 hours,10.96
same,Tumor/Background Ratio (Tu/Bkg),[2]; 6 hours,6.23 ± 3.02
same,Tumor/Background Ratio (Tu/Bkg),[2]; 24 hours,0.85 ± 0.29
same,Tumor/Background Ratio (Tu/Bkg),[2]; 48 hours,0.08 ± 0.19
same,radioactivity in the uteri and tumors,"[3]; 48 hours post-injection, uteri and tumors, subcutaneous MCF-7",no radioactivity defected
same,"Percent Injected Dose/Gram, blood",[3]; 10-12 hours,0.16 Percent Injected Dose/Gram
same,"Percent Injected Dose/Gram, blood",[3]; 2 hours,0.59 Percent Injected Dose/Gram
same,"Percent Injected Dose/Gram, blood",[3]; 6 hours,0.58 Percent Injected Dose/Gram
same,"Percent Injected Dose/Gram, blood",[3]; 24 hours,0.03 Percent Injected Dose/Gram
same,"Percent Injected Dose/Gram, blood",[3]; 48 hours,0.01 Percent Injected Dose/Gram
same,"Percent Injected Dose/Gram, fat",[3]; 10-12 hours,0.00 Percent Injected Dose/Gram
same,"Percent Injected Dose/Gram, fat",[3]; 2 hours,0.88 Percent Injected Dose/Gram
same,"Percent Injected Dose/Gram, fat",[3]; 6 hours,0.25 Percent Injected Dose/Gram
same,"Percent Injected Dose/Gram, fat",[3]; 24 hours,0.00 Percent Injected Dose/Gram
same,"Percent Injected Dose/Gram, fat",[3]; 48 hours,0.00 Percent Injected Dose/Gram
same,"Percent Injected Dose/Gram, kidney",[3]; 10-12 hours,0.10 Percent Injected Dose/Gram
same,"Percent Injected Dose/Gram, kidney",[3]; 2 hours,0.64 Percent Injected Dose/Gram
same,"Percent Injected Dose/Gram, kidney",[3]; 6 hours,0.37 Percent Injected Dose/Gram
same,"Percent Injected Dose/Gram, kidney",[3]; 24 hours,0.00 Percent Injected Dose/Gram
same,"Percent Injected Dose/Gram, kidney",[3]; 48 hours,0.00 Percent Injected Dose/Gram
same,"Percent Injected Dose/Gram, liver",[3]; 10-12 hours,0.55 Percent Injected Dose/Gram
same,"Percent Injected Dose/Gram, liver",[3]; 2 hours,3.33 Percent Injected Dose/Gram
same,"Percent Injected Dose/Gram, liver",[3]; 6 hours,1.93 Percent Injected Dose/Gram
same,"Percent Injected Dose/Gram, liver",[3]; 24 hours,0.09 Percent Injected Dose/Gram
same,"Percent Injected Dose/Gram, liver",[3]; 48 hours,0.06 Percent Injected Dose/Gram
same,"Percent Injected Dose/Gram, muscle",[3]; 10-12 hours,0.00 Percent Injected Dose/Gram
same,"Percent Injected Dose/Gram, muscle",[3]; 2 hours,0.07 Percent Injected Dose/Gram
same,"Percent Injected Dose/Gram, muscle",[3]; 6 hours,0.05 Percent Injected Dose/Gram
same,"Percent Injected Dose/Gram, muscle",[3]; 24 hours,0.00 Percent Injected Dose/Gram
same,"Percent Injected Dose/Gram, muscle",[3]; 48 hours,0.00 Percent Injected Dose/Gram
same,"Percent Injected Dose/Gram, spleen",[3]; 10-12 hours,0.05 Percent Injected Dose/Gram
same,"Percent Injected Dose/Gram, spleen",[3]; 2 hours,0.28 Percent Injected Dose/Gram
same,"Percent Injected Dose/Gram, spleen",[3]; 6 hours,0.25 Percent Injected Dose/Gram
same,"Percent Injected Dose/Gram, spleen",[3]; 24 hours,0.00 Percent Injected Dose/Gram
same,"Percent Injected Dose/Gram, spleen",[3]; 48 hours,0.00 Percent Injected Dose/Gram
same,"Percent Injected Dose/Gram, tumor",[3]; 10-12 hours,0.09 Percent Injected Dose/Gram
same,"Percent Injected Dose/Gram, tumor",[3]; 2 hours,0.91 Percent Injected Dose/Gram
same,"Percent Injected Dose/Gram, tumor",[3]; 6 hours,0.41 Percent Injected Dose/Gram
same,"Percent Injected Dose/Gram, tumor",[3]; 24 hours,0.00 Percent Injected Dose/Gram
same,"Percent Injected Dose/Gram, tumor",[3]; 48 hours,0.00 Percent Injected Dose/Gram
same,"Percent Injected Dose/Gram, uteri",[3]; 10-12 hours,0.38 Percent Injected Dose/Gram
same,"Percent Injected Dose/Gram, uteri",[3]; 2 hours,2.81 Percent Injected Dose/Gram
same,"Percent Injected Dose/Gram, uteri",[3]; 6 hours,1.02 Percent Injected Dose/Gram
same,"Percent Injected Dose/Gram, uteri",[3]; 24 hours,0.02 Percent Injected Dose/Gram
same,"Percent Injected Dose/Gram, uteri",[3]; 48 hours,0.00 Percent Injected Dose/Gram
same,Tumor/Background Ratio (Tu/Bkg),[4]; 10-12 hours,4.46 ± 1.44
same,Tumor/Background Ratio (Tu/Bkg),[4]; 2 hours,12.73
same,Tumor/Background Ratio (Tu/Bkg),[4]; 6 hours,9.58 ± 4.69
same,Tumor/Background Ratio (Tu/Bkg),[4]; 24 hours,1.13 ± 0.16
same,Tumor/Background Ratio (Tu/Bkg),[4]; 48 hours,0.13 ± 0.08
same,tumor to background ratios / localization at the tumor site (in words),[4]; after 10 to 12 hours,not being maintained or localized at the tumor site
same,tumor to background ratios (in words),[4]; at 10 to 12 hours,good tumor to background ratios
